Biological target: STING (Homo sapiens, UniProt Q86WV6, G230A/H232R/R293Q/R71H)
Experiment: STING reporter assay in THP1-Dual KO-IFNAR2 cells (2′3′cGAMP stimulation, luciferase reporter)
Assay type: cell-based
Conditions: 15 μM 2′3′cGAMP stimulation, 24 h, read-out: Pharmaron, THP1_IFNAR2 STING 24 h Luci Normalized: GeoMean EC50
How it was run: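 EC50 from secreted luciferase (QUANTI-Luc Plus luminescence of supernatant) after 24 h at 37 °C, 5% CO2. Cells: THP1-Dual KO-IFNAR2, treated with compound (0.0017-100 μM final) plus lipofected 2′3′cGAMP at 15 μM final.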

Chain of STING (Q86WV6 whole entry R71H/G230A/H232R/R293Q): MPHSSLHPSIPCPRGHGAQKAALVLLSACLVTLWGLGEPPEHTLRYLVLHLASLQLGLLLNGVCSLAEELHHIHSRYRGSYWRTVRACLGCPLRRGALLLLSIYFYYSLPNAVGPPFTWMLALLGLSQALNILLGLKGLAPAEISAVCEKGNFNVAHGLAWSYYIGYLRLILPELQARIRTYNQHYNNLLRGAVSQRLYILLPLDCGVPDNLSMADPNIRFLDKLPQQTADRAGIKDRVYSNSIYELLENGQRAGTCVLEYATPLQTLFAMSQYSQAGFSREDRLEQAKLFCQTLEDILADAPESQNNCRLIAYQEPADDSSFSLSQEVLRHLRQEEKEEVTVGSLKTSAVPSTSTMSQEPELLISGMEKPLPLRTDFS

SMILES | EC50
CC(=O)Nc1c[nH]c2ccc(CCOc3cnc4c(OC(F)(F)F)cccc4c3)cc12 [Compound 477, N-[5-(2-{[8-(trifluoromethoxy)quinolin-3-yl]oxy}ethyl)-1H-indol-3-yl]acetamide] | 1000 to 5000 nM
CC(=O)Nc1c[nH]c2ccc(OCCC3CN(CC(F)(F)F)CC34CC4)cc12 (centres unmarked) [Compound 478, N-(5-(2-(5-(2,2,2-trifluoroethyl)-5-azaspiro[2.4]heptan-7-yl)ethoxy)-1H-indol-3-yl)acetamide] | 1000 to 5000 nM
CC1(C(=O)Nc2c[nH]c3ccc(OC[C@@H]4C[C@@H]5CN(CC(F)(F)F)C[C@@H]5C4)cc23)COC1 [Compound 479, 3-methyl-N-(5-(((3aR,5r,6aS)-2-(2,2,2-trifluoroethyl)octahydrocyclopenta[c]pyrrol-5-yl)methoxy)-1H-indol-3-yl)oxetane-3-carboxamide] | 40 to 200 nM
CC(=O)Nc1c[nH]c2ccc(CCOc3cnc4ccc(OC(F)(F)F)cc4c3)cc12 [Compound 480, N-[5-(2-{[6-(trifluoromethoxy)quinolin-3-yl]oxy}ethyl)-1H-indol-3-yl]acetamide] | 200 to 1000 nM
CC(=O)Nc1c[nH]c2ccc(CCOc3cncc(C(F)(F)F)c3)cc12 [Compound 481, N-[5-(2-{[5-(trifluoromethyl)pyridin-3-yl]oxy}ethyl)-1H-indol-3-yl]acetamide] | 1000 to 5000 nM
CC(=O)Nc1c[nH]c2ccc(CO[C@H]3C[C@H](c4ccc(C(F)(F)F)cc4)C3)cc12 [Compound 482, N-(5-((trans-3-(4-(trifluoromethyl)phenyl)cyclobutoxy)methyl)-1H-indol-3-yl)acetamide] | 40 to 200 nM
CC1(C(=O)Nc2c[nH]c3ccc(O[C@H]4C[C@H](c5ccc(C(F)(F)F)cc5)C4)cc23)CN(CC(F)F)C1 [Compound 483, 1-(2,2-difluoroethyl)-3-methyl-N-(5-(trans-3-(4-(trifluoromethyl)phenyl)cyclobutoxy)-1H-indol-3-yl)azetidine-3-carboxamide] | 40 to 200 nM
CC(=O)Nc1c[nH]c2ccc(OCCc3sc(C(F)(F)F)nc3C)cc12 [Compound 484, N-(5-(2-(4-methyl-2-(trifluoromethyl)thiazol-5-yl)ethoxy)-1H-indol-3-yl)acetamide] | 1000 to 5000 nM
CC1(C(=O)Nc2c[nH]c3ccc(OC[C@@H]4C[C@H]5CC[C@@H](C4)N5CC(F)(F)F)cc23)COC1 [Compound 485, 3-methyl-N-(5-(((1R,3s,5S)-8-(2,2,2-trifluoroethyl)-8-azabicyclo[3.2.1]octan-3-yl)methoxy)-1H-indol-3-yl)oxetane-3-carboxamide] | 1000 to 5000 nM
COCCOCC(=O)Nc1c[nH]c2ccc(O[C@H]3C[C@H](c4ccc(C(F)(F)F)cc4)C3)cc12 [Compound 486, 2-(2-methoxyethoxy)-N-{5-[(1R,3R)-3-[4-(trifluoromethyl)phenyl]cyclobutoxy]-1H-indol-3-yl}acetamide] | 40 to 200 nM
CC1(C(=O)Nc2c[nH]c3ccc(O[C@H]4C[C@H](c5ccc(C(F)(F)F)cc5)C4)cc23)CCCO1 (stereo partly drawn) [Compound 487, 2-methyl-N-{5-[(1R,3R)-3-[4-(trifluoromethyl)phenyl]cyclobutoxy]-1H-indol-3-yl}oxolane-2-carboxamide] | 40 to 200 nM
CC1(C(=O)Nc2c[nH]c3ccc(O[C@H]4C[C@H](c5ccc(C(F)(F)F)cc5)C4)cc23)CCOCC1 [Compound 488, 4-methyl-N-{5-[(1R,3R)-3-[4-(trifluoromethyl)phenyl]cyclobutoxy]-1H-indol-3-yl}oxane-4-carboxamide] | 40 to 200 nM
O=C(Nc1c[nH]c2ccc(O[C@H]3C[C@H](c4ccc(C(F)(F)F)cc4)C3)cc12)C1(F)CC1 [Compound 489, l-fluoro-N-{5-[(1R,3R)-3-[4-(trifluoromethyl)phenyl]cyclobutoxy]-1H-indol-3-yl}cyclopropane-1-carboxamide] | 200 to 1000 nM
O=C(Nc1c[nH]c2ccc(O[C@H]3C[C@H](c4ccc(C(F)(F)F)cc4)C3)cc12)C1CCOCC1 [Compound 493, N-{5-[(1R,3R)-3-[4-(trifluoromethyl)phenyl]cyclobutoxy]-1H-indol-3-yl}oxane-4-carboxamide] | 40 to 200 nM
CC(=O)Nc1c[nH]c2ccc(CO[C@H]3C[C@@H](c4ccc(C(F)(F)F)cc4)C3)cc12 [Compound 500, N-(5-((cis-3-(4-(trifluoromethyl)phenyl)cyclobutoxy)methyl)-1H-indol-3-yl)acetamide] | 40 to 200 nM

Further lines, results first:

EC50 | SMILES
40 to 200 nM | CC(=O)Nc1c[nH]c2ccc(CCOc3ccc4c(c3)CCCC4)cc12 [Compound 490, N-(5-[2-(5,6,7,8-tetrahydronaphthalen-2-yloxy)ethyl]-1H-indol-3-yl}acetamide]
200 to 1000 nM | CC(=O)Nc1c[nH]c2ccc(CCOc3ccnc(OC(F)F)c3)cc12 [Compound 491, N-[5-(2-{[2-(difluoromethoxy)pyridin-4-yl]oxy}ethyl)-1H-indol-3-yl]acetamide]
5000 to 100000 nM | CC(=O)Nc1c[nH]c2ccc(COCC34CC(CN3CC(F)(F)F)C4)cc12 [Compound 492, N-(5-(((2-(2,2,2-trifluoroethyl)-2-azabicyclo[2.1.1]hexan-1-yl)methoxy)methyl)-1H-indol-3-yl)acetamide]
200 to 1000 nM | CC(=O)Nc1c[nH]c2ccc(OC3CCN(c4ccc(C(F)(F)F)cc4)C3)cc12 (centres unmarked) [Compound 494, N-(5-((1-(4-(trifluoromethyl)phenyl)pyrrolidin-3-yl)oxy)-1H-indol-3-yl)acetamide]
1000 to 5000 nM | CC(=O)Nc1c[nH]c2ccc(C#Cc3ccc(C(F)(F)F)cc3)cc12 [Compound 495, N-(5-((4-(trifluoromethyl)phenyl)ethynyl)-1H-indol-3-yl)acetamide]
200 to 1000 nM | CC1(C)OC(C)(C)C1C(=O)Nc1c[nH]c2ccc(OCc3ccc(C(F)(F)F)cc3)cc12 [Compound 496, 2,2,4,4-tetramethyl-N-(5-((4-(trifluoromethyl)benzyl)oxy)-1H-indol-3-yl)oxetane-3-carboxamide]
1000 to 5000 nM | CC(=O)Nc1c[nH]c2ccc(OC(C)c3ccc(C(F)(F)F)cc3)cc12 (centres unmarked) [Compound 497, N-(5-(1-(4-(trifluoromethyl)phenyl)ethoxy)-1H-indol-3-yl)acetamide]
200 to 1000 nM | O=C(Nc1c[nH]c2ccc(OCCC3CCCN(CC(F)(F)F)C3)cc12)C1CC1 (centres unmarked) [Compound 498, N-(5-(2-(1-(2,2,2-trifluoroethyl)piperidin-3-yl)ethoxy)-1H-indol-3-yl)cyclopropanecarboxamide]
5000 to 100000 nM | CC(=O)Nc1c[nH]c2ccc(CCOC(C)(C)C3CCN(CC(F)(F)F)C3)cc12 (centres unmarked) [Compound 499, N-(5-(2-((2-(1-(2,2,2-trifluoroethyl)pyrrolidin-3-yl)propan-2-yl)oxy)ethyl)-1H-indol-3-yl)acetamide]
1000 to 5000 nM | CC(=O)Nc1c[nH]c2ccc(OCC[C@H]3CC[C@](O)(C(F)(F)F)CC3)cc12 [Compound 501, N-(5-(2-(cis-4-hydroxy-4-(trifluoromethyl)cyclohexyl)ethoxy)-1H-indol-3-yl)acetamide]
200 to 1000 nM | C[C@]1(C(=O)Nc2c[nH]c3ccc(OCC[C@@H]4C[C@@H]5CN(CC(F)(F)F)C[C@@H]5C4)cc23)CC[C@H](O)CC1 [Compound 504, (1r,4R)-4-hydroxy-1-methyl-N-(5-(2-((3aR,5r,6aS)-2-(2,2,2-trifluoroethyl)octahydrocyclopenta[c]pyrrol-5-yl)ethoxy)-1H-indol-3-yl)cyclohexane-1-carboxamide]

From patent US12503436B2, “Compounds and compositions for treating conditions associated with STING activity” (NOVARTIS PHARMA AG, priority 2021, dated 2025)
